Test results taken from ChEMBL document CHEMBL5352488, “Development of novel S-N3-DABO derivatives as potent non-nucleoside reverse transcriptase inhibitors with improved potency and selectivity” (Eur J Med Chem, 2023).

What was measured:
[1] = system: Human immunodeficiency virus 1; assay: Anti-HIV activity against wild type HIV-1 IIIB infected in human MT4 cells assessed as inhibition of virus-induced cytopathic effect by MTT assay; type: functional, organism-based; conditions: Human immunodeficiency virus 1, IIIB
[2] = system: Human immunodeficiency virus 1; assay: Anti-HIV activity against drug resistant HIV-1 harboring F227L/V106A mutant infected in human MT4 cells assessed as inhibition of virus-induced cytopathic effect by MTT assay; type: functional, organism-based; conditions: Human immunodeficiency virus 1, MT4
[3] = system: Human immunodeficiency virus 1; assay: Anti-HIV activity against drug resistant HIV-1 harboring E138K mutant infected in human MT4 cells assessed as inhibition of virus-induced cytopathic effect by MTT assay; type: functional, organism-based; conditions: Human immunodeficiency virus 1, MT4
[4] = system: Human immunodeficiency virus 1; assay: Anti-HIV activity against drug resistant HIV-1 harboring Y188L mutant infected in human MT4 cells assessed as inhibition of virus-induced cytopathic effect by MTT assay; type: functional, organism-based; conditions: Human immunodeficiency virus 1, MT4
[5] = Selectivity index, ratio of CC50 for cytotoxicity against human MT4 cells assessed as reduction in cell viability by MTT assay to EC50 for anti-HIV activity against wild type HIV-1 IIIB infected in human MT4 cells assessed as inhibition of virus-induced cytopathic effect by MTT assay; type: toxicity, cell-based; conditions: read-out: Ratio CC50/EC50
[6] = Cytotoxicity against human MT4 cells assessed as reduction in cell viability by MTT assay; type: toxicity, cell-based
[7] = system: Human immunodeficiency virus 1; assay: Anti-HIV activity against drug resistant HIV-1 harboring L100I mutant infected in human MT4 cells assessed as inhibition of virus-induced cytopathic effect by MTT assay; type: functional, organism-based; conditions: Human immunodeficiency virus 1, MT4
[8] = system: Human immunodeficiency virus 1; assay: Anti-HIV activity against drug resistant HIV-1 harboring K103N mutant infected in human MT4 cells assessed as inhibition of virus-induced cytopathic effect by MTT assay; type: functional, organism-based; conditions: Human immunodeficiency virus 1, MT4
[9] = system: Human immunodeficiency virus 1; assay: Anti-HIV activity against drug resistant HIV-1 harboring Y181C mutant infected in human MT4 cells assessed as inhibition of virus-induced cytopathic effect by MTT assay; type: functional, organism-based; conditions: Human immunodeficiency virus 1, MT4
[10] = molecular target: Human immunodeficiency virus type 1 reverse transcriptase (Human immunodeficiency virus 1, UniProt Q72547); assay: Inhibition of wild type HIV-1 reverse transcriptase assessed as assessed as inhibition of biotin deoxyuridine triphosphate incorporation into […]

| Structure (SMILES) | EC50 [1] [µM] | EC50 [2] [µM] | EC50 [3] [µM] | EC50 [4] [µM] | selectivity ratio [5] | CC50 [6] [µM] | EC50 [7] [µM] | EC50 [8] [µM] | EC50 [9] [µM] | IC50 [10] [µM] |
| --- | --- | --- | --- | --- | --- | --- | --- | --- | --- | --- |
| Cc1c(C(C#N)c2ccccc2)nc(SC(C)C)[nH]c1=O (stereo unspecified) | 0.37 | 21.4 | 0.87 | > 204 | – | – | – | – | – | – |
| CC(C)Sc1nc(C(N=[N+]=[N-])c2ccccc2)c(C(C)C)c(=O)[nH]1 (stereo unspecified) | 0.47 | – | – | – | > 780 | > 364 | – | – | – | – |
| Cc1c(C(N=[N+]=[N-])c2ccc(Cl)cc2)nc(SC(C)C)[nH]c1=O (stereo unspecified) | 0.22 | > 357 | 3.61 | > 357 | > 1650 | > 357 | 11 | 61.1 | > 357 | – |
| Cc1ccc(C(N=[N+]=[N-])c2nc(SC(C)C)[nH]c(=O)c2C(C)C)cc1 (stereo unspecified) | 0.52 | – | – | – | > 667 | > 350 | – | – | – | – |
| Cc1c(C(N=[N+]=[N-])c2ccc(Br)cc2)nc(SC(C)C)[nH]c1=O (stereo unspecified) | 0.23 | – | – | – | > 1410 | > 317 | – | – | – | – |
| Cc1c(C(N=[N+]=[N-])c2cccc3ccccc23)nc(SC(C)C)[nH]c1=O (stereo unspecified) | 0.34 | > 342 | 1.37 | > 342 | > 1000 | > 342 | 5.27 | > 342 | 186 | – |
| CC(C)Sc1nc(C(N=[N+]=[N-])c2ccc(-c3ccccc3)cc2)c(C(C)C)c(=O)[nH]1 (stereo unspecified) | > 59.2 | – | – | – | < 1 | 84.2 | – | – | – | – |
| Cc1c(C(N=[N+]=[N-])c2ccc3ccccc3c2)nc(SC(C)C)[nH]c1=O (stereo unspecified) | 0.44 | 65 | 5.04 | 69.7 | 11 | 4.89 | 11.3 | > 154 | 60.3 | – |
| CC(C)Sc1nc(C(N=[N+]=[N-])c2ccc(F)cc2)c(C(C)C)c(=O)[nH]1 (stereo unspecified) | 1.16 | – | – | – | > 298 | > 346 | – | – | – | – |
| CCc1c(C(N=[N+]=[N-])c2ccc(C)cc2)nc(SC(C)C)[nH]c1=O (stereo unspecified) | 0.16 | 314 | 0.45 | > 364 | > 2300 | > 364 | 0.13 | 3.9 | 114 | 0.17 |
| Cc1c(C(N=[N+]=[N-])c2ccc(OC(F)(F)F)cc2)nc(SC(C)C)[nH]c1=O (stereo unspecified) | 4.93 | – | – | – | > 63 | > 313 | – | – | – | – |
| Cc1c(C(N=[N+]=[N-])c2ccc(F)cc2)nc(SC(C)C)[nH]c1=O (stereo unspecified) | 0.29 | – | – | – | 1090 | 320 | – | – | – | – |
| CCc1c(C(N=[N+]=[N-])c2ccc3ccccc3c2)nc(SC(C)C)[nH]c1=O (stereo unspecified) | 0.52 | – | – | – | < 8 | 3.98 | – | – | – | – |
| CCc1c(C(N=[N+]=[N-])c2ccccc2)nc(SC(C)C)[nH]c1=O (stereo unspecified) | 0.14 | 14.9 | 0.55 | 188 | > 2770 | > 379 | 12.2 | 6.03 | 6.02 | – |
| CCc1c(C(N=[N+]=[N-])c2ccc(F)cc2)nc(SC(C)C)[nH]c1=O (stereo unspecified) | 0.38 | – | – | – | > 956 | > 360 | – | – | – | – |
| CCc1c(C(N=[N+]=[N-])c2cc(OC)cc(OC)c2)nc(SC(C)C)[nH]c1=O (stereo unspecified) | 0.92 | – | – | – | > 349 | > 321 | – | – | – | – |
| Cc1cc(C)cc(C(N=[N+]=[N-])c2nc(SC(C)C)[nH]c(=O)c2C(C)C)c1 (stereo unspecified) | 0.38 | – | – | – | > 878 | > 336 | – | – | – | – |

| Structure (SMILES) | EC50 [1] [µM] | EC50 [2] [µM] | EC50 [3] [µM] | EC50 [4] [µM] | selectivity ratio [5] | CC50 [6] [µM] | EC50 [7] [µM] | EC50 [8] [µM] | EC50 [9] [µM] | IC50 [10] [µM] |
| --- | --- | --- | --- | --- | --- | --- | --- | --- | --- | --- |
| CCc1c(C(N=[N+]=[N-])c2cccc3ccccc23)nc(SC(C)C)[nH]c1=O (stereo unspecified) | 0.96 | > 10.2 | 7.34 | 55.8 | 81 | 77.7 | 9.18 | 71.6 | 17.1 | – |
| CCc1c(C(N=[N+]=[N-])c2ccc(Br)cc2)nc(SC(C)C)[nH]c1=O (stereo unspecified) | 0.29 | 95.7 | 1.86 | 160 | > 1040 | > 306 | 10.4 | 51.2 | 65.2 | – |
| Cc1c(C(N=[N+]=[N-])c2ccccc2)nc(SC(C)C)[nH]c1=O (stereo unspecified) | 0.055 | > 396 | 2.66 | > 396 | > 7190 | > 396 | 10.6 | > 387 | > 396 | – |
| Cc1c(C(N=[N+]=[N-])c2ccc(-c3ccccc3)cc2)nc(SC(C)C)[nH]c1=O (stereo unspecified) | > 319 | – | – | – | – | > 319 | – | – | – | – |
| CCc1c(C(N=[N+]=[N-])c2cc(C)cc(C)c2)nc(SC(C)C)[nH]c1=O (stereo unspecified) | 0.067 | 14.3 | 0.41 | > 350 | > 5240 | > 350 | 0.97 | 4.82 | 4.68 | 0.1 |
| CCc1c(C(N=[N+]=[N-])c2ccc(OC(F)(F)F)cc2)nc(SC(C)C)[nH]c1=O (stereo unspecified) | 6.02 | 9.71 | 0.26 | 62.2 | > 50 | > 302 | 29.5 | 38.2 | 60.4 | – |
| CC(C)Sc1nc(C(N=[N+]=[N-])c2ccc(Cl)cc2)c(C(C)C)c(=O)[nH]1 (stereo unspecified) | 0.9 | – | – | – | > 367 | > 331 | – | – | – | – |
| COc1cc(OC)cc(C(N=[N+]=[N-])c2nc(SC(C)C)[nH]c(=O)c2C(C)C)c1 (stereo unspecified) | 1.78 | 58.9 | 4.56 | 63.1 | 55 | 97.6 | 10.2 | > 139 | 54.7 | – |
| CCc1c(C(N=[N+]=[N-])c2ccc(-c3ccccc3)cc2)nc(SC(C)C)[nH]c1=O (stereo unspecified) | > 308 | 16 | 0.37 | 65.4 | – | > 308 | 2.06 | 20.9 | 4.41 | – |
| CC(C)Sc1nc(C(N=[N+]=[N-])c2ccc3ccccc3c2)c(C(C)C)c(=O)[nH]1 (stereo unspecified) | > 4.78 | 7.39 | 0.09 | > 58.7 | < 1 | 4.79 | 1.06 | 3.3 | 1.4 | – |
| CC(C)Sc1nc(C(N=[N+]=[N-])c2ccc(Br)cc2)c(C(C)C)c(=O)[nH]1 (stereo unspecified) | 1.45 | > 32.2 | 3.69 | > 32.3 | 23 | 32.8 | 1.44 | 8.2 | > 32.2 | – |
| Cc1ccc(C(N=[N+]=[N-])c2nc(SC(C)C)[nH]c(=O)c2C)cc1 (stereo unspecified) | 0.083 | – | – | – | 93 | 7.73 | – | – | – | – |
| CCc1c(C(N=[N+]=[N-])c2ccc(Cl)cc2)nc(SC(C)C)[nH]c1=O (stereo unspecified) | 0.26 | > 127 | 0.81 | > 344 | > 1310 | > 344 | 3.69 | 14.3 | 95.2 | – |
| COc1cc(OC)cc(C(N=[N+]=[N-])c2nc(SC(C)C)[nH]c(=O)c2C)c1 (stereo unspecified) | 0.34 | 38.5 | 1.54 | > 333 | > 983 | > 333 | 2.62 | 107 | 9.85 | – |
| O=C1Nc2ccc(Cl)cc2[C@@](C#CC2CC2)(C(F)(F)F)O1 [EFAVIRENZ] | – | 0.28 | – | – | – | – | – | – | – | – |
| Cc1ccnc2c1NC(=O)c1cccnc1N2C1CC1 [NEVIRAPINE] | – | > 15 | – | > 15 | – | > 15 | – | – | 7.71 | – |
| Cc1cn([C@H]2C[C@H](N=[N+]=[N-])[C@@H](CO)O2)c(=O)[nH]c1=O [ZIDOVUDINE] | – | 0.026 | – | – | > 236 | > 7.06 | 0.012 | 0.024 | 0.023 | – |
